The assay addresses T1, recombinant human SAE enzyme (Homo sapiens, UniProt Q9UBT2).
T1 sequence (Q9UBT2 1-640): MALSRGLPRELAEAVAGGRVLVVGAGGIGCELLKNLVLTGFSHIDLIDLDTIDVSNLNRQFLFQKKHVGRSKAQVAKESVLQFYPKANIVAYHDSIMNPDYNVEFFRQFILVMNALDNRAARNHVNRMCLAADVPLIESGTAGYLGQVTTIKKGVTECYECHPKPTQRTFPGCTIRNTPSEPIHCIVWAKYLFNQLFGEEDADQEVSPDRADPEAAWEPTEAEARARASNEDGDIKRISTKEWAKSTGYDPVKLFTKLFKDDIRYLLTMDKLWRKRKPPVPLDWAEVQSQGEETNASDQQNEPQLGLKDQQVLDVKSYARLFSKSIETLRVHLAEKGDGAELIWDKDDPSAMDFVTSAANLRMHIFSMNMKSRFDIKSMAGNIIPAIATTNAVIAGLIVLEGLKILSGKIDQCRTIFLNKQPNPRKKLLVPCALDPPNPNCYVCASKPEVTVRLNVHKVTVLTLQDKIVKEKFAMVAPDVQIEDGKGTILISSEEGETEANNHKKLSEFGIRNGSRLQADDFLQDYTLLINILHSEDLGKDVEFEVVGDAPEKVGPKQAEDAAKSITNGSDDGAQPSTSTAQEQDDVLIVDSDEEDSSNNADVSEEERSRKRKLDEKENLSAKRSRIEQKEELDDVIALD
T1 sequence (Q9UBE0 1-346 partner): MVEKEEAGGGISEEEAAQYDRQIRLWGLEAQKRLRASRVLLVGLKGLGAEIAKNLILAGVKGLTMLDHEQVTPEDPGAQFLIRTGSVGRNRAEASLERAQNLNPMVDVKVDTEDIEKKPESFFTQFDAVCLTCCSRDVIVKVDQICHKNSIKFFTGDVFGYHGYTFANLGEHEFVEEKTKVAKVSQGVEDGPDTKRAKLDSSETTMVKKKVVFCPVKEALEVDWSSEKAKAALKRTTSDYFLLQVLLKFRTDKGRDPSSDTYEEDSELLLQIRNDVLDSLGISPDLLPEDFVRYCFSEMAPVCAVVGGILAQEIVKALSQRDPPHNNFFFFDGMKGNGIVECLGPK
Briefly: SAE HTRF Enzyme Assay. The class given is biochemical. The following applies: for IC50: class symbols A-C; for inhibition at 0.111 µM: compound concentration 0.111 μM, read-out: Percent Inhibition. An outline of the steps: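 Recombinant human SAE (0.11 nM) transferred Sumo-Flag (0.125 μM) to Ubc9-GST (0.01 μM) with 0.5 μM ATP in HEPES pH 7.5, MgCl2, GSH, BSA; 105 min at 24° C. EDTA stop, Eu-cryptate anti-Flag and XL-APC anti-GST added, 2 h, then HTRF read. Values given as % inhibition at one concentration or IC50.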

Where only a bound is given, the exact number is not on record here.

A word on the IC50: it is the point on the concentration scale where inhibition reaches its midpoint. What is called inhibition is the share of the control response that was lost under treatment. Regarding `NS(=O)(=O)OC[C@H]1C[C@@H](Nc2ncncc2C(=O)c2ccn(Cc3cccc(Cl)n3)n2)C[C@@H]1O` [Compound I-95, [(1R,2S,4R)-4-{[5-({1-[(6-chloropyridin-2-yl)methyl]-1H-pyrazol-3-yl}carbonyl)pyrimidin-4-yl]amino}-2-hydroxycyclopentyl]methyl sulfamate], the IC50 was less than 10 nM and the inhibition at 0.111 µM was determined as 99%.
For `NS(=O)(=O)OC[C@H]1C[C@@H](Nc2ncncc2C(=O)c2ccn(CC(=O)c3cccc(Br)c3)n2)[C@H](O)[C@@H]1O` [Compound I-96, [(1R,2R,3S,4R)-4-{[5-({1-[2-(3-bromophenyl)-2-oxoethyl]-1H-pyrazol-3-yl}carbonyl)pyrimidin-4-yl]amino}-2,3-dihydroxycyclopentyl]methyl sulfamate], in that order: less than 10 nM and 98%.
For the molecule `NS(=O)(=O)OC[C@H]1C[C@@H](Nc2ccncc2C(=O)c2ccn(Cc3ccc(F)c(Cl)c3)n2)C[C@@H]1O` [Compound I-97, {(1R,2S,4R)-4-[(3-{[1-(3-Chloro-4-fluorobenzyl)-1H-pyrazol-3-yl]carbonyl}pyridin-4-yl)amino]-2-hydroxycyclopentyl}methyl sulfamate], the IC50 was less than 10 nM and the inhibition at 0.111 µM worked out at 96%.
With `NS(=O)(=O)OC[C@H]1C[C@@H](Nc2ncncc2C(=O)c2ccn(Cc3ccccc3OC(F)(F)F)n2)[C@H](O)[C@@H]1O` [Compound I-98, [(1R,2R,3S,4R)-2,3-dihydroxy-4-{[5-({1-[2-(trifluoromethoxy)benzyl]-1H-pyrazol-3-yl}carbonyl)pyrimidin-4-yl]amino}cyclopentyl]methyl sulfamate], the IC50 was less than 10 nM and the inhibition at 0.111 µM is 96%.
In the case of `Cc1cc(C(=O)c2cncnc2N[C@@H]2C[C@H](COS(N)(=O)=O)[C@@H](O)C2)nn1Cc1cccc(Cl)n1` [Compound I-99, [(1R,2S,4R)-4-{[5-({1-[(6-chloropyridin-2-yl)methyl]-5-methyl-1H-pyrazol-3-yl}carbonyl)pyrimidin-4-yl]amino}-2-hydroxycyclopentyl]methyl sulfamate], the IC50 is less than 10 nM and the inhibition at 0.111 µM was more than 99%.
For `NS(=O)(=O)OC[C@H]1C[C@@H](Nc2ncncc2C(=O)c2ccn(Cc3ccc(Cl)c(OC(F)(F)F)c3)n2)[C@H](O)[C@@H]1O` [Compound I-100, [(1R,2R,3S,4R)-4-{[5-({1-[4-chloro-3-(trifluoromethoxy)benzyl]-1H-pyrazol-3-yl}carbonyl)pyrimidin-4-yl]amino}-2,3-dihydroxycyclopentyl]methyl sulfamate], in that order: less than 10 nM and 98%.
Turning to `Cc1cc(C(=O)c2cncnc2N[C@@H]2C[C@H](COS(N)(=O)=O)[C@@H](O)C2)nn1Cc1ccc(Cl)o1` [Compound I-101, [(1R,2S,4R)-4-{[5-({1-[(5-chloro-2-furyl)methyl]-5-methyl-1H-pyrazol-3-yl}carbonyl)pyrimidin-4-yl]amino}-2-hydroxycyclopentyl]methyl sulfamate], the 50% inhibitory concentration (IC50) was less than 10 nM and the inhibition at 0.111 µM was 100%.
The like results for `NS(=O)(=O)OC[C@H]1C[C@@H](Nc2ncncc2C(=O)c2ccn(Cc3cccc(C(F)(F)F)c3)n2)[C@@H](F)[C@@H]1O` [Compound I-102, [(1R,2R,3R,4R)-3-fluoro-2-hydroxy-4-{[5-({1-[3-(trifluoromethyl)benzyl]-1H-pyrazol-3-yl}carbonyl)pyrimidin-4-yl]amino}cyclopentyl]methyl sulfamate] were, in that order, less than 10 nM and 97%.
For the molecule `NS(=O)(=O)OC[C@H]1C[C@@H](Nc2ncncc2C(=O)c2ccn(Cc3ccc4ccccc4c3)n2)[C@H](O)[C@@H]1O` [Compound I-103, {(1R,2R,3S,4R)-2,3-dihydroxy-4-[(5-{[1-(2-naphthylmethyl)-1H-pyrazol-3-yl]carbonyl}pyrimidin-4-yl)amino]cyclopentyl}methyl sulfamate], the IC50 was less than 10 nM and the inhibition at 0.111 µM came out at 97%.
The like results for `NS(=O)(=O)OC[C@H]1C[C@@H](Nc2ncncc2C(=O)c2ccn(Cc3cc(I)ccc3Cl)n2)C[C@@H]1O` [Compound I-104, {(1R,2S,4R)-4-[(5-{[1-(2-chloro-5-iodobenzyl)-1H-pyrazol-3-yl]carbonyl}pyrimidin-4-yl)amino]-2-hydroxycyclopentyl}methyl sulfamate] were, in that order, less than 10 nM and 100%.
For the molecule `NS(=O)(=O)OC[C@H]1C[C@@H](Nc2ncncc2C(=O)c2cc(Cl)n(Cc3cccc(Br)c3)c2Cl)[C@@H](F)[C@@H]1O` [Compound I-105, {(1R,2R,3R,4R)-4-[(5-{[1-(3-bromobenzyl)-2,5-dichloro-1H-pyrrol-3-yl]carbonyl}pyrimidin-4-yl)amino]-3-fluoro-2-hydroxycyclopentyl}methyl sulfamate], the IC50 was 100 to 1000 nM and the inhibition at 0.111 µM was 18%.
As for `NS(=O)(=O)OC[C@H]1C[C@@H](Nc2ncncc2C(=O)c2ccn(Cc3ccc(F)cc3)n2)[C@H](O)[C@@H]1O` [Compound I-106, {(1R,2R,3S,4R)-4-[(5-{[1-(4-fluorobenzyl)-1H-pyrazol-3-yl]carbonyl}pyrimidin-4-yl)amino]-2,3-dihydroxycyclopentyl}methyl sulfamate], the IC50 is less than 10 nM and the inhibition at 0.111 µM was more than 99%.
In the case of `C/C=C/Cn1ccc(C(=O)c2cncnc2N[C@@H]2C[C@H](COS(N)(=O)=O)[C@@H](O)C2)n1` [Compound I-107, [(1R,2S,4R)-4-{[5-({1-[(2E)-but-2-en-1-yl]-1H-pyrazol-3-yl}carbonyl)pyrimidin-4-yl]amino}-2-hydroxycyclopentyl]methyl sulfamate], the IC50 fell in the range of 10 to 100 nM and the inhibition at 0.111 µM turned out to be 70%.
Take `N#CCn1ccc(C(=O)c2cncnc2N[C@@H]2C[C@H](COS(N)(=O)=O)[C@@H](O)C2)n1` [Compound I-108, {(1R,2S,4R)-4-[(5-{[1-(cyanomethyl)-1H-pyrazol-3-yl]carbonyl}pyrimidin-4-yl)amino]-2-hydroxycyclopentyl}methyl sulfamate]: the IC50 lay within 100 to 1000 nM and the inhibition at 0.111 µM was 18%.
As to `CC(C)(O)c1cccc(Cn2ccc(C(=O)c3cncnc3N[C@@H]3C[C@H](COS(N)(=O)=O)[C@@H](O)C3)n2)n1` [Compound I-109, [(1R,2S,4R)-2-hydroxy-4-({5-[(1-{[6-(2-hydroxypropan-2-yl)pyridin-2-yl]methyl}-1H-pyrazol-3-yl)carbonyl]pyrimidin-4-yl}amino)cyclopentyl]methyl sulfamate], the IC50 fell in the range of 10 to 100 nM and the inhibition at 0.111 µM is 76%.
In the case of `NS(=O)(=O)OC[C@H]1C[C@@H](Nc2ncncc2C(=O)c2ccn(Cc3cc4ccccc4o3)c2)[C@@H](F)[C@@H]1O` [Compound I-110, {(1R,2R,3R,4R)-4-[(5-{[1-(1-benzofuran-2-ylmethyl)-1H-pyrrol-3-yl]carbonyl}pyrimidin-4-yl)amino]-3-fluoro-2-hydroxycyclopentyl}methyl sulfamate], the IC50 was less than 10 nM and the inhibition at 0.111 µM came out at 99%.
For the molecule `NS(=O)(=O)OC[C@H]1C[C@@H](Nc2ncncc2C(=O)c2nn(Cc3cccc(Br)c3)cc2Cl)C[C@@H]1O` [Compound I-111, {(1R,2S,4R)-4-[(5-{[1-(3-Bromobenzyl)-4-chloro-1H-pyrazol-3-yl]carbonyl}pyrimidin-4-yl)amino]-2-hydroxycyclopentyl}methyl sulfamate], the IC50 is less than 10 nM and the inhibition at 0.111 µM was 91%.
For `NS(=O)(=O)OC[C@H]1C[C@@H](Nc2ncncc2C(=O)c2ccn(Cc3ccc(Cl)c(F)c3)n2)[C@H](O)[C@@H]1O` [Compound I-112, {(1R,2R,3S,4R)-4-[(5-{[1-(4-chloro-3-fluorobenzyl)-1H-pyrazol-3-yl]carbonyl}pyrimidin-4-yl)amino]-2,3-dihydroxycyclopentyl}methyl sulfamate], in that order: less than 10 nM and 97%.
On to `CC(C)(C)C#CCn1ccc(C(=O)c2cncnc2N[C@@H]2C[C@H](COS(N)(=O)=O)[C@@H](O)C2)n1` [Compound I-113, {(1R,2S,4R)-4-[(5-{[1-(4,4-dimethylpent-2-yn-1-yl)-1H-pyrazol-3-yl]carbonyl}pyrimidin-4-yl)amino]-2-hydroxycyclopentyl}methyl sulfamate], for which the IC50 was in the range of 10 to 100 nM and the inhibition at 0.111 µM was determined as 81%.
